# In patent US20060210479A1 (Dow Global Technologies Inc., priority 2004, published 2006):
# What was measured:
# [1] = system: LNCaP cell line; assay: Chelate permeability: fluorescence of cytoplasm and membrane fractions; assay type: cell-based, human; settings: 1 mM chelate, 2 h
# [2] = system: T84 cell line; assay: as above; assay type: cell-based, human; settings: 1 mM chelate, 2 h
# [3] = system: Caco-2 cell line; assay: as above; assay type: cell-based, human; settings: 1 mM chelate, 2 h
# [4] = system: RBL-2H3 cell line; assay: as above; assay type: cell-based, rat; settings: 1 mM chelate, 2 h, Table 4
# Procedure: Tb-PCTMB (Tb(III) 3,6,9-tris(methylene phosphonic acid n-butyl ester)-3,6,9,15-tetraazabicyclo[9.3.1]pentadeca-1(15),11,13-triene) was tested for permeability to abnormal and disease-state cells.
# RBL-2H3 is a rat basophilic leukemia cell line. These cells were grown in Iscove's Medium supplemented with 2 mM L-glutamnine, penicillin/streptomycin (100 IU/mL, 100 μg/mL) and 10% FBS. Cells were maintained at 5% CO2 and 95% humidity. PZ-HPV-7 cell line was derived from epithelial cells cultured from normal prostate tissue. They were grown in Keratinocyte-Serum Free Medium with human recombinant EGF and bovine pituitary extract supplemented with 50 μg/mL gentamicin and penicillin/streptomycin (100 IU/mL, 100 μg/mL). All media and supplements were purchased from Gibco BRL (Grand Island, N.Y., USA). All cell lines were obtained from ATCC and were maintained at 37° C., 5% CO2 and 95% humidity.
# Cells were grown to confluence in T-150 flasks (about 2×10^6 cells). […] Cells were then removed from the flask by manual scraping. Cells were transferred to a 50-mL conical tube and centrifuged (400×g) for 5 minutes and the test material removed.
# Cells were grown as described herein (Example 1). Cells were grown to confluence in T-150 flask (about 2×10^6 cells). […] Cells were then removed from the flask by manual scraping. Cells were transferred to a 50-mL conical tube and centrifuged (400×g) for 5 minutes and the test material removed.
# Furthermore, one analogue, QCTMP (FIG. 26), having lesser lipophilic character (a free phosphonic acid moiety) was evaluated. […] In this study, the cytoplasm and membrane fractions were extracted by Mem-PER Eukaryotic Membrane Protein Extraction Reagent Kit as described by the manufacturers (Pierce Biotechnology, Rockford, Ill.) and analyzed by a Fluor-S Multilmager.
# [5] = system: PZ-HPV-7 normal cell line; assay: as above; assay type: cell-based; settings: PZ-HVP-7; 1 mM chelate, 2 h; Table 4
# [6] = system: HEK293 cells, normal (non-induced); assay: Permeability of chelates to HEK293 cells, fluorescence of fractions; assay type: cell-based, human; settings: for Fluorescence/mg Cytoplasm / Fluorescence/mg Membrane: HEK293 Normal, 1 mM chelate, 2 hours; for differential fluorescence, cytoplasm versus membrane fractions: normal HEK293 cells
# Procedure: (§1) The human kidney transformed HEK293 cells (obtained from the ATCC) were grown in Eagle's Minimum Essential Medium (EMEM) supplemented with 10% (v/v) heat-inactivated fetal bovine serum, sodium pyruvate, nonessential amino acids and antibiotics in a humidified 5% CO2 atmosphere at 37° C. Medium and supplements were purchased from Gibco bRL (Grand Island, N.Y.). Etoposide was obtained from Sigma (St. Louis, Mo.) and prepared as 20 mM solution in dimethyl sulfoxide (DMSO). For treatments, etoposide was applied to the HEK293 cultures at 1:1000 dilution (final concentration of 20 μM) after cell became 75% confluent. As a control, cells were fed with medium containing 0.1% DMSO in the absence of etoposide. After treatment with etoposide, cells were incubated in a humidified 5% CO2 at 37° C. for 24 hours. HEK293 cells were collected by removing treatment medium and washed 2 times with 10 mM HEPES buffer. Final cell pellets were resuspended in a small amount of HEPES and stored at 4° C. for further study.
# (§2) Cells were grown to confluence in T-150 flasks (about 2×10^6 cells). […] After treatment, the chelate or analogue supernatant was discarded and the cells were rinsed three times at room temperature with 10 mM HEPES. Cells were then removed from the flask by manual scraping. Cells were transferred to a 50-mL conical tube and centrifuged (400×g) for 5 minutes and the test material removed. Remaining cells were rinsed twice with cold 10 mM HEPES. Cells were used in cell binding assays.
# [7] = system: etoposide-induced (apoptotic) HEK293 cells; assay: Permeability of chelates to apoptotic cells, fluorescence of fractions; assay type: cell-based, human; settings: for Fluorescence/mg Cytoplasm / Fluorescence/mg Membrane: HEK293 Apoptotic (etoposide 20 μM, 24 hours), 1 mM chelate, 2 hours; for differential fluorescence, cytoplasm versus membrane fractions: etoposide-induced HEK293 cells
# Procedure: as §1, §2
# [8] = system: cancer cells (LNCaP, Caco-2, T84); assay: Chelate permeability and specificity, cancer cells versus normal cells (summary); assay type: cell-based, human; settings: for permeability to cell membranes: cancer cells
SMILES,Fluorescence/mg Cytoplasm [6],Fluorescence/mg Membrane [6],"differential fluorescence, cytoplasm versus membrane fractions [6]",Fluorescence/mg Cytoplasm [7],Fluorescence/mg Membrane [7],"differential fluorescence, cytoplasm versus membrane fractions [7]",specificity or selectivity for cancer cells versus normal cells [8],permeability to cell membranes [8],Fluorescence/mg Cytoplasm ([1]; Table 1),Fluorescence/mg Membrane ([1]; Table 1),Fluorescence/mg Cytoplasm ([2]; Table 1),Fluorescence/mg Membrane ([2]; Table 1),Fluorescence/mg Cytoplasm ([3]; Table 1),Fluorescence/mg Membrane ([3]; Table 1),other results
Cc1ccc2nc(CN3CCN(CP(=O)([O-])O)CCN(CP(=O)([O-])O)CCN(CP(=O)([O-])O)CC3)ccc2c1.[Eu+3] [Eu-QCTMP],1732,1738,did not show any significant differential fluorescence,1450,1800,did not show any significant differential fluorescence,did not show any specificity or selectivity,did not appear to be permeable,–,–,–,–,–,–,Fluorescence/mg Cytoplasm ([1]; Table 4): 2287; Fluorescence/mg Membrane ([1]; Table 4): 2301; Fluorescence/mg Cytoplasm ([2]; Table 4): 2230; Fluorescence/mg Membrane ([2]; Table 4): 2259; Fluorescence/mg Cytoplasm ([3]; Table 4): 2300; Fluorescence/mg Membrane ([3]; Table 4): 2314; Fluorescence/mg Cytoplasm [4]: 2311; Fluorescence/mg Membrane [4]: 2311; Fluorescence/mg Cytoplasm [5]: 2276; Fluorescence/mg Membrane [5]: 2271
O=C([O-])CN1CCN(CC(=O)[O-])Cc2cccc(n2)CN(CC(=O)[O-])CC1.[Tb+3] [Tb-PCTA],686,685,did not show any significant differential fluorescence,652,678,did not show any significant differential fluorescence,did not show any specificity or selectivity,no permeability,368.8,362.1,333.4,329.1,366.3,362.8,–
COP(=O)([O-])CN1CCN(CP(=O)([O-])OC)Cc2cccc(n2)CN(CP(=O)([O-])OC)CC1.[Tb+3] [Tb-PCTMM],682,679,did not show any significant differential fluorescence,656,962,did not show any significant differential fluorescence,did not show any specificity or selectivity,no permeability,344.5,379.5,328.3,358.7,357.7,388.9,–
